Experimental data reported in ChEMBL document CHEMBL5532698, “2,3-Dihydroquinazolin-4(1H)-ones and quinazolin-4(3H)-ones as broad-spectrum cytotoxic agents and their impact on tubulin polymerisation” (RSC Med Chem, 2024).

What was measured:
[1] = Antiproliferative activity against human SJG2 cells assessed as cell growth inhibition at 25 uM incubated for 72 hrs by MTT assay relative to control; format: functional; details: SJ-G2
DU-145 [2] = test: Antiproliferative activity against human DU-145 cells assessed as cell growth inhibition incubated for 72 hrs by MTT assay; format: functional
MIA PaCa-2 [3] = test: Antiproliferative activity against human MIA PaCa-2 cells assessed as cell growth inhibition incubated for 72 hrs by MTT assay; format: functional
NCI-H460 [4] = test: Antiproliferative activity against human NCI-H460 cells assessed as cell growth inhibition incubated for 72 hrs by MTT assay; format: functional
HT-29 [5] = test: Antiproliferative activity against human HT-29 cells assessed as cell growth inhibition incubated for 72 hrs by MTT assay; format: functional
MCF7 [6] = test: Antiproliferative activity against human MCF7 cells assessed as cell growth inhibition at 25 uM incubated for 72 hrs by MTT assay relative to control; format: functional
A-431 [7] = test: Antiproliferative activity against human A-431 cells assessed as cell growth inhibition at 25 uM incubated for 72 hrs by MTT assay relative to control; format: functional
BE(2)-C [8] = test: Antiproliferative activity against human BE2C cells assessed as cell growth inhibition incubated for 72 hrs by MTT assay; format: functional
[9] = Cytotoxicity against human MCF-10A cells assessed as cell growth inhibition incubated for 72 hrs by MTT assay; format: toxicity, cell-based
DU-145 [10] = test: Antiproliferative activity against human DU-145 cells assessed as cell growth inhibition at 25 uM incubated for 72 hrs by MTT assay relative to control; format: functional
BE(2)-C [11] = test: Antiproliferative activity against human BE2C cells assessed as cell growth inhibition at 25 uM incubated for 72 hrs by MTT assay relative to control; format: functional
A-431 [12] = test: Antiproliferative activity against human A-431 cells assessed as cell growth inhibition incubated for 72 hrs by MTT assay; format: functional
U-87 MG [13] = test: Antiproliferative activity against human U87 cells assessed as cell growth inhibition incubated for 72 hrs by MTT assay; format: functional, U-87MG ATCC
[14] = Antiproliferative activity against human SJG2 cells assessed as cell growth inhibition incubated for 72 hrs by MTT assay; format: functional; details: SJ-G2
A2780 [15] = test: Antiproliferative activity against human A2780 cells assessed as cell growth inhibition at 25 uM incubated for 72 hrs by MTT assay relative to control; format: functional
NCI-H460 [16] = test: Antiproliferative activity against human NCI-H460 cells assessed as cell growth inhibition at 25 uM incubated for 72 hrs by MTT assay relative to control; format: functional
U-87 MG [17] = test: Antiproliferative activity against human U87 cells assessed as cell growth inhibition at 25 uM incubated for 72 hrs by MTT assay relative to control; format: functional, U-87MG ATCC
MCF7 [18] = test: Antiproliferative activity against human MCF7 cells assessed as cell growth inhibition incubated for 72 hrs by MTT assay; format: functional
MIA PaCa-2 [19] = test: Antiproliferative activity against human MIA PaCa-2 cells assessed as cell growth inhibition at 25 uM incubated for 72 hrs by MTT assay relative to control; format: functional
HT-29 [20] = test: Antiproliferative activity against human HT-29 cells assessed as cell growth inhibition at 25 uM incubated for 72 hrs by MTT assay relative to control; format: functional
A2780 [21] = test: Antiproliferative activity against human A2780 cells assessed as cell growth inhibition incubated for 72 hrs by MTT assay; format: functional
[22] = Cytotoxicity against human MCF-10A cells assessed as cell growth inhibition at 25 uM incubated for 72 hrs by MTT assay relative to control; format: toxicity, cell-based

Structure (SMILES)	inhibition at 25 µM [1] [%]	GI50 (DU-145 [2]) [µM]	GI50 (MIA PaCa-2 [3]) [µM]	GI50 (NCI-H460 [4]) [µM]	GI50 (HT-29 [5]) [µM]	inhibition at 25 µM (MCF7 [6]) [%]	inhibition at 25 µM (A-431 [7]) [%]	GI50 (BE(2)-C [8]) [µM]	GI50 at 72 h [9] [µM]	inhibition at 25 µM (DU-145 [10]) [%]	inhibition at 25 µM (BE(2)-C [11]) [%]	GI50 (A-431 [12]) [µM]	GI50 (U-87 MG [13]) [µM]	GI50 [14] [µM]	inhibition at 25 µM (A2780 [15]) [%]	inhibition at 25 µM (NCI-H460 [16]) [%]	inhibition at 25 µM (U-87 MG [17]) [%]	GI50 (MCF7 [18]) [µM]	inhibition at 25 µM (MIA PaCa-2 [19]) [%]	inhibition at 25 µM (HT-29 [20]) [%]	also measured
O=C1NC(c2cc3ccccc3o2)Nc2ccccc21 (centres undefined)	≥ 71	4.8	3.5	3.1	2.6	63	≥ 75	3.1	3.9	≥ 28	66	2.7	4.1	3	≥ 57	77	47	3.3	76	≥ 92	GI50 (A2780 [21]): 2.9 µM; inhibition at 72 h, 25 µM [22]: 76%
O=C1NC(c2ccc(Br)cc2)Nc2ccccc21 (centres undefined)	> 100	3.3	3.2	3.2	2.9	89	> 100	2.6	4	> 100	> 100	3.1	4.7	2.5	99	97	88	3.6	90	> 100	GI50 (A2780 [21]): 3.1 µM; inhibition at 72 h, 25 µM [22]: 95%
O=C1NC(c2ccc([N+](=O)[O-])cc2)Nc2ccccc21 (centres undefined)	56	26	7.5	14	8.7	> 100	57	10	11	50	53	17	> 50	10	65	61	22	3.8	52	70	GI50 (A2780 [21]): 11 µM; inhibition at 72 h, 25 µM [22]: 58%
Cc1ccc(C2NC(=O)c3ccccc3N2)cc1 (centres undefined)	> 100	3.1	3.4	3.2	1.6	90	> 100	1.9	3.1	> 100	87	2.3	2.6	2.9	> 100	> 100	> 100	4	95	> 100	GI50 (A2780 [21]): 2.3 µM; inhibition at 72 h, 25 µM [22]: 100%
O=C1NC(c2ccc(-c3ccccc3)cc2)Nc2ccccc21 (centres undefined)	> 100	2.3	2.3	2.8	2.3	> 100	> 100	2	2.3	> 100	92	2.4	2.2	2.6	> 100	> 100	> 100	1.6	> 100	> 100	GI50 (A2780 [21]): 3.8 µM; inhibition at 72 h, 25 µM [22]: 98%
COC(=O)c1cccc(/C=C/c2nc3ccccc3c(=O)[nH]2)c1	43	16	5.6	7.2	3.8	77	8	8.5	8.5	32	47	6.2	32	5.5	16	34	11	2.2	39	40	GI50 (A2780 [21]): 4.8 µM; inhibition at 72 h, 25 µM [22]: 48%
Cc1ccc(/C=C/c2nc(O)c3ccccc3n2)cc1	57	7.7	3.3	9.4	2.1	> 100	93	3.6	3.8	61	82	4	19	13	97	69	51	1.2	85	> 100	GI50 (A2780 [21]): 3.7 µM; inhibition at 72 h, 25 µM [22]: 86%
O=C1NC(c2cccc(Br)c2)Nc2ccccc21 (centres undefined)	> 100	2.9	3.2	1.9	2.6	104	> 100	2.4	3.9	> 100	> 100	2.7	4.1	1.9	99	101	98	2	90	> 100	GI50 (A2780 [21]): 2.6 µM; inhibition at 72 h, 25 µM [22]: 99%
O=C1NC(/C=C/c2ccco2)Nc2ccccc21 (centres undefined)	100	4	3.6	3.3	2.2	83	> 100	2.6	3.4	100	100	2.1	4.3	3	> 100	93	99	7.4	93	90	GI50 (A2780 [21]): 3 µM; inhibition at 72 h, 25 µM [22]: 100%
O=C1NC(/C(Br)=C/c2ccccc2)Nc2ccccc21 (centres undefined)	> 100	3.1	12	4.7	2.6	> 100	> 100	10	2.9	> 100	87	8.2	5.7	12	94	97	95	8.5	81	> 100	GI50 (A2780 [21]): 5 µM; inhibition at 72 h, 25 µM [22]: 99%
O=C1NC(C2CC=CCC2)Nc2ccccc21 (centres undefined)	87	19	12	11	5.4	72	> 100	5.7	11	67	97	3.8	17	17	99	91	67	15	82	> 100	GI50 (A2780 [21]): 3.9 µM; inhibition at 72 h, 25 µM [22]: 89%
O=C1NC(c2ccccc2Br)Nc2ccccc21 (centres undefined)	> 100	4.3	4.2	3.6	2.4	82	> 100	2.5	4.3	100	> 100	2.3	10	3	96	95	80	3.7	89	> 100	GI50 (A2780 [21]): 2.5 µM; inhibition at 72 h, 25 µM [22]: 94%
